Laboratory results as given in ChEMBL document CHEMBL4196088, “Induction of cell killing and autophagy by amphiphilic pyrrolidine derivatives on human pancreatic cancer cells” (Eur J Med Chem, 2018).
Active and inactive are the calls of the source. The calls are words filed in the database; no cut-off is given here.

How the values were obtained:
SK-BR-3 = test: Growth inhibition of human SKBR3 cells after 72 hrs; format: functional, cell-based; conditions: SK-BR-3, 72 h
BXPC-3 [1] = test: Induction of apoptosis in human BxPC3 cells assessed as accumulation at sub-G0/G1 phase at 20 uM after 24 hrs by propidium iodide staining based flow cytometry (reference value: 2.3%); format: functional
BXPC-3 [2] = test: Induction of apoptosis in human BxPC3 cells assessed as accumulation at sub-G0/G1 phase at 20 uM after 48 hrs by propidium iodide staining based flow cytometry (reference value: 2.8%); format: functional
BXPC-3 [3] = test: Induction of apoptosis in human BxPC3 cells assessed as accumulation at sub-G0/G1 phase at 20 uM after 72 hrs by propidium iodide staining based flow cytometry (reference value: 3.4%); format: functional
BXPC-3 [4] = test: Induction of apoptosis in human BxPC3 cells assessed as accumulation at sub-G0/G1 phase harboring pSFFV-Bcl-XL at 20 uM after 24 hrs by propidium iodide staining based flow cytometry (reference value: 1.2%); format: functional
BXPC-3 [5] = test: Induction of apoptosis in human BxPC3 cells assessed as accumulation at sub-G0/G1 phase harboring pSFFV-Bcl-XL at 20 uM after 48 hrs by propidium iodide staining based flow cytometry (reference value: 1.3%); format: functional
BXPC-3 [6] = test: Induction of apoptosis in human BxPC3 cells assessed as accumulation at sub-G0/G1 phase harboring pSFFV-Bcl-XL at 20 uM after 72 hrs by propidium iodide staining based flow cytometry (reference value: 1.3%); format: functional
PANC-1 [7] = test: Induction of apoptosis in human PANC1 cells assessed as accumulation at sub-G0/G1 phase at 20 uM after 24 hrs by propidium iodide staining based flow cytometry (reference value: 0.6 to 0.7%); format: functional
PANC-1 [8] = test: Induction of apoptosis in human PANC1 cells assessed as accumulation at sub-G0/G1 phase at 20 uM after 48 hrs by propidium iodide staining based flow cytometry (reference value: 0.2 to 2.9%); format: functional
PANC-1 [9] = test: Induction of apoptosis in human PANC1 cells assessed as accumulation at sub-G0/G1 phase at 20 uM after 72 hrs by propidium iodide staining based flow cytometry (reference value: 1.6 to 3.2%); format: functional
PK9 [10] = test: Induction of apoptosis in human PK9 cells assessed as accumulation at sub-G0/G1 phase at 20 uM after 24 hrs by propidium iodide staining based flow cytometry (reference value: 2.2%); format: functional
PK9 [11] = test: Induction of apoptosis in human PK9 cells assessed as accumulation at sub-G0/G1 phase at 20 uM after 48 hrs by propidium iodide staining based flow cytometry (reference value: 3.8%); format: functional
PK9 [12] = test: Induction of apoptosis in human PK9 cells assessed as accumulation at sub-G0/G1 phase at 20 uM after 72 hrs by propidium iodide staining based flow cytometry (reference value: 4%); format: functional
[13] = Induction of apoptosis in HPNE cells assessed as accumulation at sub-G0/G1 phase at 20 uM after 24 hrs by propidium iodide staining based flow cytometry (reference value: 0.6%); format: cell-based; conditions: human
[14] = Induction of apoptosis in HPNE cells assessed as accumulation at sub-G0/G1 phase at 20 uM after 48 hrs by propidium iodide staining based flow cytometry (reference value: 0.7%); format: cell-based; conditions: human
[15] = Induction of apoptosis in HPNE cells assessed as accumulation at sub-G0/G1 phase at 20 uM after 72 hrs by propidium iodide staining based flow cytometry (reference value: 6.6%); format: cell-based; conditions: human
PANC-1 [16] = test: Induction of apoptosis in human PANC1 cells assessed as accumulation at sub-G0/G1 phase at 10 uM after 24 hrs by propidium iodide staining based flow cytometry (reference value: 0.6 to 0.7%); format: functional
PANC-1 [17] = test: Induction of apoptosis in human PANC1 cells assessed as accumulation at sub-G0/G1 phase at 10 uM after 48 hrs by propidium iodide staining based flow cytometry (reference value: 0.2 to 2.9%); format: functional
PANC-1 [18] = test: Induction of apoptosis in human PANC1 cells assessed as accumulation at sub-G0/G1 phase at 10 uM after 72 hrs by propidium iodide staining based flow cytometry (reference value: 1.6 to 3.2%); format: functional
BXPC-3 [19] = test: Induction of apoptosis in human BxPC3 cells assessed as accumulation at sub-G0/G1 phase at 10 uM after 24 hrs by propidium iodide staining based flow cytometry (reference value: 1.8%); format: functional
BXPC-3 [20] = test: Induction of apoptosis in human BxPC3 cells assessed as accumulation at sub-G0/G1 phase at 10 uM after 48 hrs by propidium iodide staining based flow cytometry (reference value: 2.8%); format: functional
BXPC-3 [21] = test: Induction of apoptosis in human BxPC3 cells assessed as accumulation at sub-G0/G1 phase at 10 uM after 72 hrs by propidium iodide staining based flow cytometry (reference value: 3.4%); format: functional
BXPC-3 [22] = test: Induction of apoptosis in human BxPC3 cells harboring pSFFV-Bcl-XL assessed as accumulation at sub-G0/G1 phase at 10 uM after 24 hrs by propidium iodide staining based flow cytometry (reference value: 1.5%); format: functional
BXPC-3 [23] = test: Induction of apoptosis in human BxPC3 cells harboring pSFFV-Bcl-XL assessed as accumulation at sub-G0/G1 phase at 10 uM after 48 hrs by propidium iodide staining based flow cytometry (reference value: 1.9%); format: functional
BXPC-3 [24] = test: Induction of apoptosis in human BxPC3 cells harboring pSFFV-Bcl-XL assessed as accumulation at sub-G0/G1 phase at 10 uM after 72 hrs by propidium iodide staining based flow cytometry (reference value: 2%); format: functional
PK9 [25] = test: Induction of apoptosis in human PK9 cells assessed as accumulation at sub-G0/G1 phase at 10 uM after 24 hrs by propidium iodide staining based flow cytometry (reference value: 2.2%); format: functional
PK9 [26] = test: Induction of apoptosis in human PK9 cells assessed as accumulation at sub-G0/G1 phase at 10 uM after 48 hrs by propidium iodide staining based flow cytometry (reference value: 3.8%); format: functional
PK9 [27] = test: Induction of apoptosis in human PK9 cells assessed as accumulation at sub-G0/G1 phase at 10 uM after 72 hrs by propidium iodide staining based flow cytometry (reference value: 4%); format: functional
[28] = Induction of apoptosis in HPNE cells assessed as accumulation at sub-G0/G1 phase at 10 uM after 24 hrs by propidium iodide staining based flow cytometry (reference value: 0.6%); format: cell-based; conditions: human
[29] = Induction of apoptosis in HPNE cells assessed as accumulation at sub-G0/G1 phase at 10 uM after 48 hrs by propidium iodide staining based flow cytometry (reference value: 0.7%); format: cell-based; conditions: human
[30] = Induction of apoptosis in HPNE cells assessed as accumulation at sub-G0/G1 phase at 10 uM after 72 hrs by propidium iodide staining based flow cytometry (reference value: 6.6%); format: cell-based; conditions: human
BXPC-3 [31] = test: Growth inhibition of human BxPC3 cells after 72 hrs by XTT assay; format: functional, cell-based; conditions: BXPC-3, 72 h
PANC-1 [32] = test: Growth inhibition of human PANC1 cells after 72 hrs by XTT assay; format: functional, cell-based; conditions: PANC-1, 72 h
[33] = Induction of apoptosis in HPNE cells at 5 to 40 uM after 24 to 72 hrs by Annexin V/7-AAD staining based flow cytometry; format: cell-based; conditions: human
Fibroblast = test: Induction of apoptosis in human primary fibroblasts at 5 to 40 uM after 24 to 72 hrs by Annexin V/7-AAD staining based flow cytometry; format: cell-based
PK9 [34] = test: Induction of apoptosis in human PK9 cells at 5 to 40 uM after 24 to 72 hrs by Annexin V/7-AAD staining based flow cytometry; format: functional, cell-based
MIA PaCa-2 = test: Growth inhibition of human MIAPaCa2 cells after 72 hrs by MTT assay; format: functional, cell-based; conditions: MIA PaCa-2, 72 h
PK9 [35] = test: Growth inhibition of human PK9 cells after 72 hrs by MTT assay; format: functional, cell-based; conditions: PK9, 72 h

SMILES | IC50 (SK-BR-3) [µM] | Activity (BXPC-3 [1]) [%] | Activity (BXPC-3 [2]) [%] | Activity (BXPC-3 [3]) [%] | Activity (BXPC-3 [4]) [%] | Activity (BXPC-3 [5]) [%] | Activity (BXPC-3 [6]) [%] | Activity (PANC-1 [7]) [%] | Activity (PANC-1 [8]) [%] | Activity (PANC-1 [9]) [%] | Activity (PK9 [10]) [%] | Activity (PK9 [11]) [%] | Activity (PK9 [12]) [%] | Activity [13] [%] | Activity [14] [%] | Activity [15] [%] | Activity (PANC-1 [16]) [%] | Activity (PANC-1 [17]) [%] | Activity (PANC-1 [18]) [%] | Activity (BXPC-3 [19]) [%] | also measured
O[C@H]1[C@@H](O)CN[C@@H]1COCCCCCCCC/C=C/c1ccc(Oc2ccccc2)cc1 | 15 | 8.7 | 16.2 | 20.3 | 4.4 | 4.5 | 4.3 | 9.9 | 33.1 | 29.3 | 4.6 | 5.2 | 6.2 | 79.1 | 81.4 | 85.8 | 3.1 | 3.8 | 4.4 | 3.9 | Activity (BXPC-3 [20]): 6.6%; Activity (BXPC-3 [21]): 8.3%; Activity (BXPC-3 [22]): 3.6%; Activity (BXPC-3 [23]): 4.8%; Activity (BXPC-3 [24]): 4.8%; Activity (PK9 [25]): 3.4%; Activity (PK9 [26]): 4.4%; Activity (PK9 [27]): 3.1%; Activity [28]: 6.5%; Activity [29]: 6.8%; Activity [30]: 7.9%
CCCCCCCC/C=C\CCCCCCCCOC[C@@H]1CCCN1C(=O)CN.Cl | – | – | – | – | – | – | – | 2.2 | 7.9 | 50.3 | – | – | – | – | – | – | 2.4 | 13.7 | 52.9 | – | IC50 (BXPC-3 [31]): 5.3 µM; IC50 (PANC-1 [32]): 7.7 µM; Activity [33]: Toxic; Activity (Fibroblast): Toxic; Activity (PK9 [34]): Active
CCCCCCCCCCCCCCCCOC[C@H]1NC[C@H](O)[C@@H]1O | 50 | 7.1 | 16.9 | 21.7 | 4.4 | 4.8 | 7.6 | 4.4 | 4.8 | 12.8 | 2.6 | 4.6 | 2.8 | 53.9 | 62.1 | 66.8 | 3.1 | 3.5 | 4.1 | 3.5 | Activity (BXPC-3 [20]): 5.7%; Activity (BXPC-3 [21]): 7.5%; Activity (BXPC-3 [22]): 3.9%; Activity (BXPC-3 [23]): 4.2%; Activity (BXPC-3 [24]): 5.8%; Activity (PK9 [25]): 2%; Activity (PK9 [26]): 3.5%; Activity (PK9 [27]): 2.6%; Activity [28]: 2.6%; Activity [29]: 2.2%; Activity [30]: 3.1%
Cl.NCC(=O)N1CCC[C@H]1COCCCCCC/C=C/c1ccc(-c2ccccc2)cc1 | – | – | – | – | – | – | – | 1.5 | 6.3 | 24.7 | – | – | – | – | – | – | 0.9 | 6.1 | 9.5 | – | IC50 (BXPC-3 [31]): 6 µM; IC50 (PANC-1 [32]): 5.7 µM; Activity [33]: Toxic; Activity (Fibroblast): Toxic; Activity (PK9 [34]): Active
CCCCCC/C=C/CCCCCCCCOC[C@H]1NC[C@H](O)[C@@H]1O | 10 | 9.5 | 19.6 | 21.5 | 4.9 | 5 | 3.8 | 7.9 | 23.4 | 33.7 | 2.2 | 4.3 | 5.7 | 46.9 | 65.7 | 70.3 | 5.7 | 9.1 | 6.4 | 5.3 | IC50 (BXPC-3 [31]): > 100 µM; IC50 (PANC-1 [32]): 80 µM; IC50 (MIA PaCa-2): > 100 µM; IC50 (PK9 [35]): > 100 µM; Activity (BXPC-3 [20]): 7.3%; Activity (BXPC-3 [21]): 7.8%; Activity (BXPC-3 [22]): 4.3%; Activity (BXPC-3 [23]): 1.9%; Activity (BXPC-3 [24]): 3.8%; Activity (PK9 [25]): 3.4%; Activity (PK9 [26]): 3.8%; Activity (PK9 [27]): 2.7%; Activity [28]: 3.4%; Activity [29]: 2%; Activity [30]: 2.5%
